Reference: US20150289514A1 (priority 2012, published 2015)

How the values were obtained:
Format in all cases: in vivo
Phytophthora infestans = conditions: tomatoes, preventive spray, 1 ppm a.i., evaluated 3 days after inoculation
Alternaria solani = assay: Alternaria test (tomatoes)/preventive; conditions: preventive spray, evaluated 3 days after inoculation
Venturia inaequalis = assay: Venturia test (apples)/preventive; conditions: preventive spray, evaluated 10 days after inoculation

Row | Structure (SMILES) | Efficacy in % found (Phytophthora infestans) | Efficacy in % found (Alternaria solani; 1 ppm a.i.) | Efficacy in % found (Venturia inaequalis; 1 ppm a.i.) | Efficacy in % found (Alternaria solani; 0.5 ppm a.i.) | Efficacy in % found (Venturia inaequalis; 0.25 ppm a.i.)
1 | CO/C=C(/C(=O)OC)c1ccccc1Oc1cc(Oc2ccccc2C#N)ncn1 [F107, azoxystrobin] | 61% | 39% | – | – | –
2 | CSC1=N[C@@](C)(c2ccccc2)C(=O)N1Nc1ccccc1 [F114, fenamidone] | 37% | – | – | – | –
3 | COC(=O)N(OC)c1ccccc1COc1ccn(-c2ccc(Cl)cc2)n1 [F121, pyraclostrobin] | – | – | 65% | 30% | –
4 | CON=C(C(=O)OC)c1ccccc1CON=C(C)c1cccc(C(F)(F)F)c1 [F126, trifloxystrobin] | – | 38% | – | – | 60%
